# Experimental data reported in article PMC12010937, “Evaluation of FXR Activity in Pollutants Identified in Sewage Sludge and Subsequent in Vitro and in Vivo Characterization of Metabolic Effects of Triphenyl Phosphate” (Environmental Health Perspectives, 2025).
# Several values for one entry are separate records, joined by “and”; a condition that tells them apart may be missing. Identical values can stand only once. Counter-ions that a name gives are not always drawn. Like-named read-outs stand apart in the source and are kept apart here.
# Experiments:
# [1] = target: T1, FXR (pCDNA3.1-hFXR, FXRE-luc) (Homo sapiens, UniProt Q96RI1); test: cell-based; assay type: cell-based
# T1 construct: host or cells: HEK 293T
# T1 sequence (Q96RI1 1-486): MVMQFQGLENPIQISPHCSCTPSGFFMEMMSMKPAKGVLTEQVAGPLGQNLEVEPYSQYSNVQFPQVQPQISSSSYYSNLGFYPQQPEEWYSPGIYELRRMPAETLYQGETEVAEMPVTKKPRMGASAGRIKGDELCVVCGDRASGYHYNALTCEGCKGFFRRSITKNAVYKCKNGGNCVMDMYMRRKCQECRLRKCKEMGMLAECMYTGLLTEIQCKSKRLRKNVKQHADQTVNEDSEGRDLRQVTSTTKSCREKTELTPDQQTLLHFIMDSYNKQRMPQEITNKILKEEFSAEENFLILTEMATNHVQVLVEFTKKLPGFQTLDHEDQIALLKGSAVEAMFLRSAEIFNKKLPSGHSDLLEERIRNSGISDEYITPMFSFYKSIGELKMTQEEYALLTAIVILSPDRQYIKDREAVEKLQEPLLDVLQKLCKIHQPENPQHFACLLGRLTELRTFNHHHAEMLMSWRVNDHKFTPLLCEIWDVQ
# [2] = target: T2, human FXR-LBD (GST-FXR-LBD) (Homo sapiens, UniProt Q96RI1); test: HTRF coactivator recruitment assay, agonist mode; assay type: biochemical
# T2 construct: the human FXR-LBD (residues 234–472) was expressed as a GST fusion protein GST-FXR-LBD; made in house; host or cells: E. coli BL21(DE3)
# T2 sequence (Q96RI1 234-472 isoform Q96RI1-2): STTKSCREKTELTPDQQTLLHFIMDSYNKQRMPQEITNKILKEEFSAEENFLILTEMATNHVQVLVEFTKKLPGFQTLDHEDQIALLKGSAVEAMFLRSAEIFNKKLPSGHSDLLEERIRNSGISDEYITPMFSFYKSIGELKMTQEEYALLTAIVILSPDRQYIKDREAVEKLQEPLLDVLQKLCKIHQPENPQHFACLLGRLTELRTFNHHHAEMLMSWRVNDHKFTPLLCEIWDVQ
# [3] = target: T2, human FXR-LBD (GST-FXR-LBD); test: HTRF coactivator recruitment assay, antagonist mode (in the presence of 50 μM CDCA); assay type: biochemical; conditions: for activity at 1.95 µM / activity at 3.9 µM / activity at 31.25 µM / activity at 62.5 µM / activity at 250 µM / activity at 0.98 µM / activity at 7.8 µM / activity at 125 µM / activity at […]: read-out: Relative antagonist activity (%); for Relative activity, antagonist mode: 50 μM compound in the presence of 50 μM CDCA, standardized against positive control DY268 (50 μM = 100%); for IC50: read-out: IC50, inhibition of CDCA-induced coactivator recruitment to FXR
# [4] = HEK-293T, read-out: Relative luciferase activity (%)
# [5] = 1.95 μM compound + 50 μM CDCA, replicates
# [6] = 3.90 μM compound + 50 μM CDCA, replicates
# [7] = 31.25 μM compound + 50 μM CDCA, replicates
# [8] = 62.50 μM compound + 50 μM CDCA, replicates
# [9] = 250.00 μM compound + 50 μM CDCA, standardized to DMSO and 50 μM CDCA, replicates
# [10] = 50 μM compound, standardized against positive control CDCA (50 μM = 100%)
# [11] = 10 μM and 25 μM, in the presence of 50 μM CDCA, HEK 293T
# [12] = 10 μM compound in the presence of 50 μM CDCA, DMSO 0%, 50 μM CDCA 100%, HEK 293T, replicates
# [13] = 25 μM compound in the presence of 50 μM CDCA, DMSO 0%, 50 μM CDCA 100%, HEK 293T, replicates
# [14] = 0.98 μM compound + 50 μM CDCA, replicates
# [15] = 7.80 μM compound + 50 μM CDCA, replicates
# [16] = 125.00 μM compound + 50 μM CDCA, replicates
# [17] = […] compound + 50 μM CDCA, replicates
compound,measurement,setting,value
"CC(=O)c1cc2c(cc1C)C(C)(C)C(C)CC2(C)C (centres unmarked) [AHTN, tonalid]",Luciferase activity compared with DMSO control (in words),[1],significantly less luciferase activity
same,activity at 25 µM,[1]; [4],40.1%
same,"Relative activity, agonist mode",[2],2.19%
same,activity at 1.95 µM,[3]; [5],96.2%
same,activity at 3.9 µM,[3]; [6],93.9%
same,activity at 31.25 µM,[3]; [7],80.9%
same,"Relative activity, antagonist mode",[3],48.54%
same,activity at 62.5 µM,[3]; [8],61.4%
same,activity at 250 µM,[3]; [9],31.2%
same,IC50,[3],59.5 µM
same,activity at 0.98 µM,[3],93.5%
same,activity at 7.8 µM,[3],94.1%
same,activity at 125 µM,[3],41.4%
same,activity at […],[3],89.3%
"CCCCOC(=O)CC(CC(=O)OCCCC)(OC(C)=O)C(=O)OCCCC [ATBC, acetyl tributyl citrate]","Relative activity, agonist mode",[2]; [10],2.49%
same,"Relative activity, antagonist mode",[3],12.58%
"CC(C)(C)c1cc(C=O)cc(C(C)(C)C)c1O [BHT-C, 3,5-Ditert-butyl-4-hydroxybenzaldehyde]","Relative activity, agonist mode",[2]; [10],0.19%
same,"Relative activity, antagonist mode",[3],6.36%
"CCCCC(CC)COC(=O)c1ccccc1C(=O)OCC(CC)CCCC (centres unmarked) [DEHP, bis(2-ethylhexyl) phthalate]","Relative activity, agonist mode",[2],0.27%
same,"Relative activity, antagonist mode",[3],4.48%
COc1cccc(Cn2cc(C(=O)Nc3ccc(C)c(S(=O)(=O)N4CCOCC4)c3)c(-c3ccc(C)cc3)n2)c1 [DY268],Relative luciferase activity (%),"[1]; 0.001 μM, dose-response, replicates",91.11% and 96.02% and 92.43%
same,Relative luciferase activity (%),"[1]; 0.01 μM, dose-response, replicates",84.90% and 84.00% and 97.07%
same,Relative luciferase activity (%),"[1]; 0.05 μM, dose-response, replicates",69.60% and 78.44% and 89.94%
same,Relative luciferase activity (%),"[1]; 0.1 μM, dose-response, replicates",57.18% and 63.12% and 63.84%
same,Relative luciferase activity (%),"[1]; 0.5 μM, dose-response, replicates",12.17% and 13.75% and 19.14%
same,Relative luciferase activity (%),"[1]; 1 μM, dose-response, replicates",-1.72% and -0.13% and 6.23%
same,Relative luciferase activity (%),"[1]; 5 μM, dose-response, replicates",-18.25% and -19.25% and -13.03%
same,Relative luciferase activity (%),"[1]; 10 μM, dose-response, replicates",-15.95% and -18.33% and -14.15%
same,Rate of FXR inhibition at the maximum exposure concentration,"[1]; HEK 293T DLR assay, maximum exposure concentration",116.14%
same,IC50,"[1]; HEK 293T cell-based DLR assay, read-out: IC50, inhibition of FXR transcriptional activity",250 nM
same,"Relative activity, antagonist mode",[3],100.00%
"O=C1Nc2ccc(Cl)cc2[C@@](C#CC2CC2)(C(F)(F)F)O1 [EFV, efavirenz]",Luciferase activity compared with DMSO control (in words),[1]; [11],significantly less luciferase activity
same,Relative luciferase activity (%),[1]; [12],29.3% and 36.3%
same,Relative luciferase activity (%),[1]; [13],36.4% and 33.0% and 15.9%
same,activity at 10 µM,"[1]; HEK-293T, 10 μM compound in the presence of 50 μM CDCA, DMSO 0%, 50 μM CDCA 100%, HEK 293T, replicates, read-out: Relative luciferase activity (%)",26.9%
same,"Relative activity, agonist mode",[2]; [10],1.60%
same,Relative antagonist activity (%),[3]; [14],83.56% and 97.08%
same,activity at 0.98 µM,[3]; [14],100%
same,Relative antagonist activity (%),[3]; [5],96.79% and 93.64%
same,activity at 1.95 µM,[3]; [5],101%
same,Relative antagonist activity (%),[3]; [6],97.17% and 94.87%
same,activity at 3.9 µM,[3]; [6],94.6%
same,Relative antagonist activity (%),[3]; [15],92.66% and 89.45%
same,activity at 7.8 µM,[3]; [15],91%
same,Relative antagonist activity (%),[3]; [7],63.55% and 62.84%
same,activity at 31.25 µM,[3]; [7],61.1%
same,"Relative activity, antagonist mode",[3],80.64%
same,Relative antagonist activity (%),[3]; [8],18.58% and 19.89%
same,activity at 62.5 µM,[3]; [8],20.8%
same,Relative antagonist activity (%),[3]; [16],-1.08% and -0.91% and -0.84%
same,Relative antagonist activity (%),[3]; [9],-2.04% and -2.11% and -2.16%
same,activity at […],[3]; [17],82%
same,IC50,[3],40.6 µM
"N#Cc1nn(-c2c(Cl)cc(C(F)(F)F)cc2Cl)c(N)c1S(=O)(=O)C(F)(F)F [FIP-S, fipronil sulfone]","Relative activity, agonist mode",[2],2.06%
same,"Relative activity, antagonist mode",[3],13.98%
"CC1COC(=O)c2cc3c(cc21)C(C)(C)C(C)C3(C)C (centres unmarked) [GAX, galaxolidone]","Relative activity, agonist mode",[2],0.32%
same,"Relative activity, antagonist mode",[3],14.46%
"C/C=C1\C(=O)C[C@H]2[C@@H]3CCC4=CC(=O)CC[C@]4(C)[C@H]3CC[C@]12C [GS, guggulsterone]",activity at 0.01 µM,"[1]; HEK-293T, 0.01 μM, dose-response, replicates, read-out: Relative luciferase activity (%)",96.6%
same,activity at 0.1 µM,"[1]; HEK-293T, 0.1 μM, dose-response, replicates, read-out: Relative luciferase activity (%)",81%
same,activity at 0.5 µM,"[1]; HEK-293T, 0.5 μM, dose-response, replicates, read-out: Relative luciferase activity (%)",81%
same,activity at 1 µM,"[1]; HEK-293T, 1 μM, dose-response, replicates, read-out: Relative luciferase activity (%)",79.6%
same,activity at 5 µM,"[1]; HEK-293T, 5 μM, dose-response, replicates, read-out: Relative luciferase activity (%)",66.4%
same,activity at 10 µM,"[1]; HEK-293T, 10 μM, dose-response, replicates, read-out: Relative luciferase activity (%)",53.9%
same,activity at 25 µM,"[1]; HEK-293T, 25 μM, dose-response, replicates, read-out: Relative luciferase activity (%)",30.5%
same,activity at 50 µM,"[1]; HEK-293T, 50 μM, dose-response, replicates, read-out: Relative luciferase activity (%)",29.9%
"Clc1ccc(COC(Cn2ccnc2)c2ccc(Cl)cc2Cl)c(Cl)c1 (centres unmarked) [MCZ, miconazole]",Luciferase activity compared with DMSO control (in words),[1]; [11],significantly less luciferase activity
same,Relative luciferase activity (%),[1]; [12],93.6% and 60.3% and 85.8%
same,Relative luciferase activity (%),[1]; [13],77.5% and 67.2% and 91.8%
same,"Relative activity, agonist mode",[2]; [10],0.00%
same,activity at 0.98 µM,[3]; [14],101%
same,activity at 1.95 µM,[3]; [5],96.5%
same,activity at 3.9 µM,[3]; [6],92.9%
same,activity at 7.8 µM,[3]; [15],77.8%
same,activity at 31.25 µM,[3]; [7],31.7%
same,activity at 62.5 µM,[3]; [8],15.9%
same,activity at 125 µM,[3]; [16],4.54%
same,activity at 250 µM,[3]; [9],2.51%
same,activity at […],[3]; [17],61.6%
same,IC50,[3],20.5 µM
"CCCCCCCC/C=C\CCCCCCCC(=O)NCCO [OEA, oleoyl ethanolamide]",Relative luciferase activity (%),[1]; [12],99.0% and 100.1% and 128.0%
same,Relative luciferase activity (%),[1]; [13],96.5% and 110.1%
same,activity at 25 µM,"[1]; HEK-293T, 25 μM compound in the presence of 50 μM CDCA, DMSO 0%, 50 μM CDCA 100%, HEK 293T, replicates, read-out: Relative luciferase activity (%)",110%
same,"Relative activity, agonist mode",[2],0.00%
same,activity at 0.98 µM,[3]; [14],106%
same,activity at 1.95 µM,[3]; [5],114%
same,activity at 3.9 µM,[3]; [6],110%
same,activity at 7.8 µM,[3]; [15],110%
same,activity at 31.25 µM,[3]; [7],102%
same,activity at 62.5 µM,[3]; [8],101%
same,activity at 125 µM,[3]; [16],96.2%
same,activity at 250 µM,[3]; [9],89.5%
same,activity at […],[3]; [17],104%
same,IC50,[3],34 µM
"CCCCCCCCCCCCCCCC(=O)NCCO [PEA, palmitoyl ethanolamide]","Relative activity, agonist mode",[2]; [10],0.57%
same,"Relative activity, antagonist mode",[3],3.94%
"O=C(Nc1ccc(Cl)cc1)Nc1ccc(Cl)c(Cl)c1 [TCC, triclocarban]","Relative activity, agonist mode",[2],0.44%
same,"Relative activity, antagonist mode",[3],10.80%
"CCCCC(CC)COP(=O)(OCC(CC)CCCC)OCC(CC)CCCC (centres unmarked) [TEHP, tris(2-ethylhexyl) phosphate]","Relative activity, agonist mode",[2],0.00%
same,"Relative activity, antagonist mode",[3],17.25%
"Oc1cc(Cl)ccc1Oc1ccc(Cl)cc1Cl [TLS, triclosan]",Luciferase activity compared with DMSO control (in words),[1],significantly less luciferase activity
same,activity at 10 µM,[1]; [4],24.8%
same,"Relative activity, agonist mode",[2],13.3% and 13.26%
same,activity at 1.95 µM,[3]; [5],91.4%
same,activity at 3.9 µM,[3]; [6],87.5%
same,activity at 31.25 µM,[3]; [7],34.6%
same,"Relative activity, antagonist mode",[3],65.82%
same,activity at 62.5 µM,[3]; [8],4.81%
same,IC50,[3],28.2 µM
same,activity at 0.98 µM,[3],91%
same,activity at 7.8 µM,[3],79.8%
same,activity at […],[3],61.3%
"CC(C)(C)CC(C)(C)c1ccc(O)c(-n2nc3ccccc3n2)c1 [UV329, octrizole]","Relative activity, agonist mode",[2]; [10],0.085%
same,"Relative activity, antagonist mode",[3],18.06%
